Experimental data as given in patent US12678440B2, “Compositions and methods for treating misfolded protein ocular disorders” (CASE WESTERN RESERVE UNIVERSITY, priority 2020, dated 2026).

How the values were obtained:
[1] = test system: SQSTM1/p62 and LC3-II in retinae of Rho^P23H/+ knock-in mice; test: Autophagy flux in retinae after intravitreal injection (immunoblots of SQSTM1/p62 and LC3); type: in vivo, mouse; settings: 25 pmol IVI at PND 15, 48 h, vs PBS
Description: (§1) Cells were seeded in 6-well plates at a density of 5×10^5 cells/well and cultured at 37° C. with 5% CO2 for 17 h. The medium was replaced with a fresh medium containing a corresponding concentration of compounds. After treatment for 24 h, cells collected and lysed in 150 μL PBS containing 0.1% SDS and complete protease inhibitor cocktail with 12 s of sonication on ice. Retina samples were lysed in 300 μL per retina of PBS containing 0.1% SDS and complete protease inhibitor cocktail under 24 s of sonication on ice. Protein concentrations were determined by measurements of OD280 nm using a Nanodrop spectrometer. To immunoblot rhodopsin, one hundred μg of total protein for NIH3T3 (RHO^P23H/GFP) cells, or twenty μg of total protein for NIH3T3 (RHO^WT/GFP) cells was loaded per well onto an SDS-PAGE gel. To detect other proteins, fifty μg of total protein was loaded per well. After separation by electrophoresis in 10% and 16% SDS-PAGE gels, proteins were transferred to a nitrocellulose membrane using a wet membrane electrotransfer cassette followed by blocking with 5% bovine serum albumin in PBS containing 0.05% Tween 20 for 1 h. The membranes were incubated with primary antibodies at 4° C. overnight following with appropriate secondary antibodies for 1 h at room temperature. […]

Rho^P23H/+ mice = test: Retinal immunohistochemistry (IHC) after intravitreal injection; type: in vivo, mouse
Description: The C57BL/6J (Rho^+/+) mice and Rho^P23H/P23H mice were purchased from Jackson Laboratory (Stock No 017628) generated by Dr. Krzysztof Palczewski's lab. The Rho^P23H/P23H mice were crossed with wild-type C57BL/6J mice to produce P23H heterozygotes mice. Genotyping for all strains was conducted as guided using forward and reverse primers: 1) GGTAGCACTGTTGGGCATCT (SEQ ID NO: 5); and 2) GACCCCACAGAGACAAGCTC (SEQ ID NO: 6), respectively. The PCR products at 573 and 399 bp indicated the P23H knock-in mutant and WT allele of the RHO gene, respectively. Mice were bred and housed under standard 12-h light/12-h dark conditions in the University of Pittsburgh animal facility. All animal experiments were approved by the University of Pittsburgh Institutional Animal Care and Use Committee (IACUC) following the guide for the Animal Welfare Act and Regulations.
To determine the effect of compounds on retina in vivo, we administered compounds directly into the vitreous space. Briefly, mice were treated with 1% tropicamide eye drops (Akorn, Lake Forest, IL USA) to dilate the pupils and then they were anesthetized with an intraperitoneal injection of ketamine (Henry Schein, Dublin, OH USA) at 80 mg/kg body weight (bw) and xylazine (Bimeda, Le Sueur, MN USA) at 7 mg/kg bw. One drop of 0.5% tetracaine hydrochloride (TCI, Tokyo, Japan) was applied to mouse eyes as topical anesthetics before injection. Eyes were kept lubricated during the injections by a 0.3% hypromellose eye gel (Alcon, Fort Worth, TX USA). A heating pad was used for maintaining body temperature. Mice were positioned to expose the sclera of the eyes. A 30-gauge needle (Medline, Northfield, IL USA) was used to puncture a hole through sclera behind limbus at a 45° angle. A 33-gauge blunt-end needle (Hamilton, Reno, NV USA) was used to be inserted into the hole and a total of 0.5 μL of sterile PBS or MTX in PBS was slowly injected into the posterior chamber and the needle was kept in place for about 30 seconds before a slow removal of the needle. A small amount of Triantibiotic ointment (Medline, Northfield, IL USA) was applied on the injection site to prevent infection. A single IVI with 25 or 100 pmol of MTX was administered to one eye of each Rho^P23H/+ mice at postnatal day (PND) 15, and PBS was injected to the other eye as vehicle control. We also performed four weekly IVIs of MTX or PBS to the second group of Rho^P23H/+ mouse eyes at PND 15, 22, 29 and 36.
Eyes were enucleated by a pair of curved-tip forceps and fixed in the freshly prepared 4% paraformaldehyde for 2 h. Fixed eyes were dehydrated sequentially in 5, 10, 20 and 40% sucrose solutions in PBS each for 30 min at room temperature. Finally, eyes were incubated in a mixture of 40% sucrose in PBS and O.C.T. compound (FisherScientific, Houston, TX USA) at 1:1 volume ratio for overnight at 4° C. before they are embedded in the same mixed solution in an orientation-specific manner and frozen in liquid nitrogen-bathed isobutene. Twelve-micron retinal cross-sections were made by a microtome at −16° C. and those containing the optic nerve head were applied onto a SuperFrost glass slide (FisherScientific, Houston, TX USA). These slides were then used for IHC. After rehydration and permeabilization in PBST for 15 min, retinal sections were incubated in 5% goat serum for 30 min, and then they were incubated with PBS containing the mouse 1D4 anti-rhodopsin antibody (20 μg/mL) for 2 hours at room temperature in a humidified chamber. The retinal sections were washed with PBST for four times and incubated with Cy3 conjugated goat anti-mouse antibody (5 μg/mL) for 1 hour at room temperature. Hoechst 33342 (1:10000 dilution) was applied for 5 min to stain the nuclei. Sections were mounted with the ProlongGold mounting solution (ThermoFisher, Waltham, MA USA). Immunofluorescence images were then taken by a fluorescence microscope for low-magnification images and a confocal microscope for high-magnification images. […]

P23H rhodopsin = test: Immunoblot of rhodopsin, MTX plus BafA1 or MG-132, NIH3T3 (RHO^P23H/GFP) cells; type: cell-based; settings: 10 μM MTX + 100 nM BafA1, 24 h
Description: as §1

[2] = four IVIs of 25 pmol, PND 46, vs PBS, superior side, not inferior side
[3] = single IVI 25 pmol, PND 33, vs PBS, superior side, not inferior side

CN(Cc1cnc2nc(N)nc(N)c2n1)c1ccc(C(=O)N[C@@H](CCC(=O)O)C(=O)O)cc1 [CL-009, N-[4-[[(2,4-diamino-6-pteridinyl)methyl]methylamino]benzoyl]-L-glutamic acid]
LC3-II level in retinae [1]: increase
SQSTM1/p62 level in retinae [1]: decrease
retinal degeneration caused by MTX (Rho^P23H/+ mice; 100 pmol IVI, Rho^P23H/+ mice): did not see obvious retinal degeneration
level of rhodopsin in the ONL (IHC) (Rho^P23H/+ mice; [2]): lower
levels of rhodopsin in the OS (IHC) (Rho^P23H/+ mice; [2]): significantly higher
nucleus number in the ONL (Rho^P23H/+ mice; [2]): higher
rhodopsin in the OS (IHC) (Rho^P23H/+ mice; [3]): significant increase
total rhodopsin level in retinae (IHC) (Rho^P23H/+ mice; [3]): significant increase
ONL nucleus number (Rho^P23H/+ mice; single IVI, PND 33, either side of the retina): No change
MTX induced P23H rhodopsin clearance under BafA1 co-treatment (immunoblot) (P23H rhodopsin): abolished
